Data as given in ChEMBL document CHEMBL5696442, “Discovery of type II inhibitors of TGFβ-activated kinase 1 (TAK1) and mitogen-activated protein kinase kinase kinase kinase 2 (MAP4K2)” (J Med Chem, 2015).

Tests used:
[1] = target: Myosin light chain kinase, smooth muscle (Homo sapiens) (UniProt Q15746); test: Inhibition of smMLCK Lys2 labeling site in human Huh-7 cells at 1 uM by KiNativ Profiling analysis relative to control; format: cell-based
[2] = target: Cyclin-dependent kinase 2 (Homo sapiens) (UniProt P24941); test: Inhibition of CDK2 Lys2 labeling site harbouring DLKPQNLLINTEGAIK in human Huh-7 cells at 1 uM by KiNativ Profiling analysis relative to control; format: cell-based
[3] = target: Calcium/calmodulin-dependent protein kinase type II subunit alpha (Homo sapiens) (UniProt Q9UQM7); test: Inhibition of CaMK2a Lys2 labeling site in human Huh-7 cells at 1 uM by KiNativ Profiling analysis relative to control; format: cell-based
Chain of Calcium/calmodulin-dependent protein kinase type II subunit alpha (Homo sapiens) (Q9UQM7 whole entry): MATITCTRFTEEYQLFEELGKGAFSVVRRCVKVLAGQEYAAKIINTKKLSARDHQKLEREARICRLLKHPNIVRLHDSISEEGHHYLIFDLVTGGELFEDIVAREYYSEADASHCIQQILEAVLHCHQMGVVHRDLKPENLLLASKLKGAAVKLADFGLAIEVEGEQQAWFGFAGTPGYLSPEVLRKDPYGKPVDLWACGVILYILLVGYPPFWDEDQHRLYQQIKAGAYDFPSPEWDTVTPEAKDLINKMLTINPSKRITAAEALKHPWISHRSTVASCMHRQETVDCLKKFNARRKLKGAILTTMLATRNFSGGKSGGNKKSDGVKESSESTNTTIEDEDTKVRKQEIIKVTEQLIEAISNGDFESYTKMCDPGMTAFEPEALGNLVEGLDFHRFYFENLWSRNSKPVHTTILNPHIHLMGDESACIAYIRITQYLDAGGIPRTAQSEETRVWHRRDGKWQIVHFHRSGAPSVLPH

[4] = target: Calcium/calmodulin-dependent protein kinase type II subunit gamma (Homo sapiens) (UniProt Q13555); test: Inhibition of CaMK2g Lys1 labeling site harbouring TSTQEYAAKIINTKK in human Huh-7 cell lysate at 1 uM by KiNativ Profiling analysis relative to control; format: subcellular
[5] = target: Phosphatidylinositol 4,5-bisphosphate 3-kinase catalytic subunit beta isoform (Homo sapiens) (UniProt P42338); test: Inhibition of PIK3CB ATP labeling site harbouring VFGEDSVGVIFKNGDDLRQDMLTLQMLR in human Huh-7 cell lysate at 1 uM by KiNativ Profiling analysis relative to control; format: subcellular
[6] = target: STE20-like serine/threonine-protein kinase (Homo sapiens) (UniProt Q9H2G2); test: Inhibition of SLK Lys2 labeling site harbouring DLKAGNILFTLDGDIKLADFGVSAK in human Huh-7 cell lysate at 1 uM by KiNativ Profiling analysis relative to control; format: subcellular
[7] = target: T1, Serine/threonine-protein kinase STK11 (Homo sapiens) (UniProt Q15831); test: Inhibition of LKB1 K2 labeling site in human Huh-7 cells at 1 uM by KiNativ Profiling analysis relative to control; format: cell-based
T1 sequence (whole entry): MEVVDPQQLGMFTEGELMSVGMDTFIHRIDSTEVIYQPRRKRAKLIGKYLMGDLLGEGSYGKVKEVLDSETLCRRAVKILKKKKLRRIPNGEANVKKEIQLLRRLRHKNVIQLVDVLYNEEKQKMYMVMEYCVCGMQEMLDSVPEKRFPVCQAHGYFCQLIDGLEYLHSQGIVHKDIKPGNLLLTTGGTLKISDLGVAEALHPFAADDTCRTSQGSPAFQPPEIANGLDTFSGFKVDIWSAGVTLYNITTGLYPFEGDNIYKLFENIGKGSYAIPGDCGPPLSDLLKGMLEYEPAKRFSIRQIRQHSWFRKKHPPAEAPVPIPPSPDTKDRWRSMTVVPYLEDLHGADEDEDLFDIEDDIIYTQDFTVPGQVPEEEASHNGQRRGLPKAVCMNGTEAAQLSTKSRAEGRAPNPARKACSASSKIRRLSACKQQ

[8] = target: MAP/microtubule affinity-regulating kinase 3 (Homo sapiens) (UniProt P27448); test: Inhibition of MARK3 K1 labeling site in human Huh-7 cells at 10 uM by KiNativ Profiling analysis relative to control; format: cell-based
Chain of MAP/microtubule affinity-regulating kinase 3 (Homo sapiens) (P27448 whole entry, looked up): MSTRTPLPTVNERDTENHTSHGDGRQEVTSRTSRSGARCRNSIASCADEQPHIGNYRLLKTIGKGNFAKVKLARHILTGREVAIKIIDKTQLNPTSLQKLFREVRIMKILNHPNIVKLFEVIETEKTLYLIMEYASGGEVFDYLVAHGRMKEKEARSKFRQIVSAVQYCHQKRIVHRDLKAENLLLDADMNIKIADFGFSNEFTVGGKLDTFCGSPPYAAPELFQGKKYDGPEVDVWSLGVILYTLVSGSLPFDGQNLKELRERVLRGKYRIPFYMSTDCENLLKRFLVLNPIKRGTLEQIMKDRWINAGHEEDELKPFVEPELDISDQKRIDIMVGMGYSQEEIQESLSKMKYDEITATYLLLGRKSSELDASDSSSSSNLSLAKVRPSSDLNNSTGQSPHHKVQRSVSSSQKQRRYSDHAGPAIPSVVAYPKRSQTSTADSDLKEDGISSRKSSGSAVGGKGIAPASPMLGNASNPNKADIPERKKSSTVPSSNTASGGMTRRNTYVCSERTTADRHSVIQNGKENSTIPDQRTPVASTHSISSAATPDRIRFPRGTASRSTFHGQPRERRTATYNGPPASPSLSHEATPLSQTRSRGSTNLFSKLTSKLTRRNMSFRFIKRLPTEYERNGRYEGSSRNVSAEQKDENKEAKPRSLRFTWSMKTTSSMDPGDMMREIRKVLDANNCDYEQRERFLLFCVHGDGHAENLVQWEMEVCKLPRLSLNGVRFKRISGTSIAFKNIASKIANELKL

[9] = target: Cyclin-dependent kinase 18 (Homo sapiens) (UniProt Q07002); test: Inhibition of PCTK3 (unknown origin) at 10 uM by Ambit Kinomescan binding assay relative to control
Chain of Cyclin-dependent kinase 18 (Homo sapiens) (Q07002 whole entry): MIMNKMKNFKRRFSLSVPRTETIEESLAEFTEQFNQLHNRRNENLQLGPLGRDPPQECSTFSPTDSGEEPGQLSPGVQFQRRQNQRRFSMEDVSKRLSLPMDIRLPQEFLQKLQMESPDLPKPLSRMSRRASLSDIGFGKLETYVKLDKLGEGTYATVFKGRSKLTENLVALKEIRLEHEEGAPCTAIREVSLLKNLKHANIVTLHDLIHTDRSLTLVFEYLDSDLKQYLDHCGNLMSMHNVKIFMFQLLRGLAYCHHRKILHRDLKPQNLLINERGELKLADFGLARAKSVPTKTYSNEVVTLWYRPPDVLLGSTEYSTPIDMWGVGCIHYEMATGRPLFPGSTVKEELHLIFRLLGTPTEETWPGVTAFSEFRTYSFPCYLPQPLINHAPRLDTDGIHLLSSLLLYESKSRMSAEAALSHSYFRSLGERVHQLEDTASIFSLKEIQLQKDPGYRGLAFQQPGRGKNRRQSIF

[10] = Inhibition of PKD1/2 K2 labeling site in human Huh-7 cells at 1 uM by KiNativ Profiling analysis relative to control; conditions: condition cancer
[11] = target: T2, Inhibitor of nuclear factor kappa-B kinase subunit alpha (Homo sapiens) (UniProt O15111); test: Inhibition of IKKa Lys2 labeling site in human A-375 cells at 5 uM by KiNativ Profiling analysis relative to control; format: cell-based
T2 sequence (whole entry): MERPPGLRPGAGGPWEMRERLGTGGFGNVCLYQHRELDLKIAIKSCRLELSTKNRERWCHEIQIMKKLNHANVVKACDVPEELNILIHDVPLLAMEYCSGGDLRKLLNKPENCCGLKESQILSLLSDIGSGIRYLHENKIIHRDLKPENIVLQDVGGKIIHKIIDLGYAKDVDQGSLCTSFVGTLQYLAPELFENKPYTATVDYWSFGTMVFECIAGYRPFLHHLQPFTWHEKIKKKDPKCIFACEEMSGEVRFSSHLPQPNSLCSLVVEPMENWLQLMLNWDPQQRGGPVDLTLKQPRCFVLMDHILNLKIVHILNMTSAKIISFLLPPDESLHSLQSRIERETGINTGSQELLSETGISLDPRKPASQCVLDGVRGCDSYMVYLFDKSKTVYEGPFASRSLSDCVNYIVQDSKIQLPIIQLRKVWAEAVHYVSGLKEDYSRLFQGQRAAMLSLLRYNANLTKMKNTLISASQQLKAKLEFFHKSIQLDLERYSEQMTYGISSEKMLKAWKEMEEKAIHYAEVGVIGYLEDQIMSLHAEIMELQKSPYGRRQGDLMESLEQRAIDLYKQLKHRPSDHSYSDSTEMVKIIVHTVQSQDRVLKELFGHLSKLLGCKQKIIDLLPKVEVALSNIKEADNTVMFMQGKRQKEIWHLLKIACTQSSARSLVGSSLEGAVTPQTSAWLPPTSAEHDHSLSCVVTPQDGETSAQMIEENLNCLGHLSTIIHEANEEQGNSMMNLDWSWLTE

[12] = target: Mitogen-activated protein kinase kinase kinase kinase 5 (Homo sapiens) (UniProt Q9Y4K4); test: Inhibition of MAP4K5 (unknown origin) at 1 uM by Ambit Kinomescan binding assay relative to control; values are per cent of control
[13] = tested on: Mast/stem cell growth factor receptor Kit (Homo sapiens), P10721 [V559D,T670I]; test: Inhibition of KIT V559D/T670I mutant (unknown origin) at 1 uM by Ambit Kinomescan binding assay relative to control; values are per cent of control
Chain of Mast/stem cell growth factor receptor Kit (Homo sapiens), P10721 [V559D,T670I] (P10721 whole entry V559D/T670I): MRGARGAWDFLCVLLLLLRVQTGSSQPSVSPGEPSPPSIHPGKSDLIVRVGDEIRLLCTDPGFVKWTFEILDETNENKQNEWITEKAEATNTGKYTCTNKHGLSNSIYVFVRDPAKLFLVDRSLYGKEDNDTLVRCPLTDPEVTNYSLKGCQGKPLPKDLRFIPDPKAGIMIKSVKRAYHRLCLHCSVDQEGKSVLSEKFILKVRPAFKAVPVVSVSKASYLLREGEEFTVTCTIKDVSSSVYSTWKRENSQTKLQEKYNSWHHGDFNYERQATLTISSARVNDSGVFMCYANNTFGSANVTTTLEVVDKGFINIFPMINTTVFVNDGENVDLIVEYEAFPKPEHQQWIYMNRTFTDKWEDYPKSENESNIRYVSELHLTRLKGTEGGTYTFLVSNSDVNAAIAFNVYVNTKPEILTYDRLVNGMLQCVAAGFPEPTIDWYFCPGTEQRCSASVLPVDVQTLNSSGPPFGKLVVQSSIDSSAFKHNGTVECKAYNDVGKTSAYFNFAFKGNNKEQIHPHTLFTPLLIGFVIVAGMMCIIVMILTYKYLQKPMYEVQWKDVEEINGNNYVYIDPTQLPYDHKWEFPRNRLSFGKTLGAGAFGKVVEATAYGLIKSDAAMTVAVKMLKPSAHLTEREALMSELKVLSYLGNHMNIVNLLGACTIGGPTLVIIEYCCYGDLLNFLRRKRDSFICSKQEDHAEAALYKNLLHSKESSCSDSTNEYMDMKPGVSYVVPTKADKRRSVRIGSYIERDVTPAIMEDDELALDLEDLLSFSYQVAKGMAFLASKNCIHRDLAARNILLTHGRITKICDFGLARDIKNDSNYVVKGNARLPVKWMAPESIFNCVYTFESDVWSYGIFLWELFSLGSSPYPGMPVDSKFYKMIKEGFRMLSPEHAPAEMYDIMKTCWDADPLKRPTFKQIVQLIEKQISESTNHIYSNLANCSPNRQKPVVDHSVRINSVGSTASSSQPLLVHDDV

[14] = target: T3, Interleukin-1 receptor-associated kinase 4 (Homo sapiens) (UniProt Q9NWZ3); test: Inhibition of IRAK4 (unknown origin) at 1 uM by Ambit Kinomescan binding assay relative to control
T3 sequence (whole entry): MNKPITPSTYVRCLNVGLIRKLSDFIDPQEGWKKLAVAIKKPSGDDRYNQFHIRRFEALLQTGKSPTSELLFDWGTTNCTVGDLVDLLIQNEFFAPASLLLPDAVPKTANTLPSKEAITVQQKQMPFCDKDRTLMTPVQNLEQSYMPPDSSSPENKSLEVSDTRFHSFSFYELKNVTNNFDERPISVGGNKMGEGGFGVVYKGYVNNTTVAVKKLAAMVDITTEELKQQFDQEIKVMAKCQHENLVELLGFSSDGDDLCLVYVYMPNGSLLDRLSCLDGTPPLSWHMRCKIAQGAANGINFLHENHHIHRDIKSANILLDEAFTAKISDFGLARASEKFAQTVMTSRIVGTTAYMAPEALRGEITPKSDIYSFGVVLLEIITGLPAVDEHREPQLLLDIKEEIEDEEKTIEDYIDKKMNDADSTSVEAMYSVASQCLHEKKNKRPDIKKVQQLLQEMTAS

Chain of Myosin light chain kinase, smooth muscle (Homo sapiens) (Q15746 whole entry): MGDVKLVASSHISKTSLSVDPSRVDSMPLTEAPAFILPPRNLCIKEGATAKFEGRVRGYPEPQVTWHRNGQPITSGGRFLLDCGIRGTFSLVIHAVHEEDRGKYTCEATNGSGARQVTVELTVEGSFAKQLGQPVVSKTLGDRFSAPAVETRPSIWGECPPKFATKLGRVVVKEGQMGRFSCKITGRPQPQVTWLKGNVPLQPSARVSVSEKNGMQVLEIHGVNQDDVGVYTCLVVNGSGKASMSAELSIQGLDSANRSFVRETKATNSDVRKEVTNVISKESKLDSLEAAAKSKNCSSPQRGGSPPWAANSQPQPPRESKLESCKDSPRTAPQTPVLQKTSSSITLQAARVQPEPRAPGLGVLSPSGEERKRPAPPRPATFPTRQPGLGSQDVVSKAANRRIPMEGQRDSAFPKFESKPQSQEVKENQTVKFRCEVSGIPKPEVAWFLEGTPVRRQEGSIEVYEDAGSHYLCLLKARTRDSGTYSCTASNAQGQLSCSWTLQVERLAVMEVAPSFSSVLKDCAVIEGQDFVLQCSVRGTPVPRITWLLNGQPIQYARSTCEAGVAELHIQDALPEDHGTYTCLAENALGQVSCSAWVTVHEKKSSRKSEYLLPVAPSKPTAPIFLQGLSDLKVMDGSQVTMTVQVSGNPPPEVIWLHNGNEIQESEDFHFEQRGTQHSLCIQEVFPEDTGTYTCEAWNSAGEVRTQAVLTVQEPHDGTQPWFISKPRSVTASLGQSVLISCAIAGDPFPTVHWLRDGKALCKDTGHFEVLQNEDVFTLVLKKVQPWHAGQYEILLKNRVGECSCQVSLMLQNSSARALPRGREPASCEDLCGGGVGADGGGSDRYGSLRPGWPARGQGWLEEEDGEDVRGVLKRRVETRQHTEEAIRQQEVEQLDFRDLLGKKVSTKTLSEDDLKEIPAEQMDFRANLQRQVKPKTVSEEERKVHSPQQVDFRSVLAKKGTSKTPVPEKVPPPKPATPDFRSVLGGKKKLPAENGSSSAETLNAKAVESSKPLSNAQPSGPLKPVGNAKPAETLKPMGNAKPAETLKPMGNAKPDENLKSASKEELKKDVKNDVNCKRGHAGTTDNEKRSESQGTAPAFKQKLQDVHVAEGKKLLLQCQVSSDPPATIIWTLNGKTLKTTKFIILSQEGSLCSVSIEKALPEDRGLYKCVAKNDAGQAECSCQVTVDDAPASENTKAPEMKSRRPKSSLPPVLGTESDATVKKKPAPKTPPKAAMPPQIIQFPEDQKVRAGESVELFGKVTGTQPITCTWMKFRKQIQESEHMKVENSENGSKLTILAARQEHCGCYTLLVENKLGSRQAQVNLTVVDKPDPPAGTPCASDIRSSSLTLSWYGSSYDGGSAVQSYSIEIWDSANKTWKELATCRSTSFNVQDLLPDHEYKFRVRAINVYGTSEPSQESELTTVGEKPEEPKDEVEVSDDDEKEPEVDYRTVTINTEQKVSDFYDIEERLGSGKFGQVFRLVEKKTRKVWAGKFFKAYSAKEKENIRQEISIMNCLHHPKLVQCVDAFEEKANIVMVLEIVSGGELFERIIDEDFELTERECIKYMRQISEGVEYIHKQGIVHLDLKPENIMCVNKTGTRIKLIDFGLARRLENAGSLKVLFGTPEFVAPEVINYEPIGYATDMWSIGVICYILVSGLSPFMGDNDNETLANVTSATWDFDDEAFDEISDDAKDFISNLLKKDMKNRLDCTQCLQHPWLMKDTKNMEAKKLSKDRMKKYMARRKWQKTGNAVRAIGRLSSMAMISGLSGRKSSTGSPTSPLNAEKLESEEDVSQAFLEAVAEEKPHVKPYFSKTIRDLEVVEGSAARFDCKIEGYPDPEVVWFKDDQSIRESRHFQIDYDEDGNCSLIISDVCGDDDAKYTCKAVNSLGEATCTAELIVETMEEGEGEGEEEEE

Molecule CNc1cc(Oc2cc(C(=O)Nc3cc(N4CCN(C)CC4)cc(C(F)(F)F)c3)ccc2C)ncn1 has an inhibition [1] of 34.3%, an inhibition [2] of -0.4% and an inhibition [3] of 20.3%. It also gave an inhibition [4] of 8.6%, an inhibition [5] of 15.8% and an inhibition [6] of 30.2%.

CCN1CCN(Cc2ccc(NC(=O)c3ccc(C)c(Oc4ccnc5[nH]ccc45)c3)cc2C(F)(F)F)CC1 showed an inhibition [7] of 5.5%, an inhibition [8] of -7.2% and an inhibition [9] of 1.8%. For the same molecule, the inhibition at 1 µM [10] was -9.2% and the inhibition [11] was 72.4%.

CCN1CCN(Cc2ccc(NC(=O)c3ccc(C)c(/C=C/c4cnc5[nH]ccc5c4OC)c3)cc2C(F)(F)F)CC1 gave a residual activity [12] of 7.2%, a residual activity [13] of 4.9% and an inhibition [14] of 100%.
